Data as given in the supplement of paper PMC9663587.

Legend:
Assay in all cases: GRmax, 72 h; higher = less effect;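 further: breast cell lines in 384-well plates, nine doses across a 10^4 range, Dye Drop imaging of viable cells vs DMSO and time-zero plates, GR 0 means no net growth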
[1] = test system: SUM44PE
[2] = test system: MDAMB361
[3] = test system: UACC812
[4] = test system: MDAMB468
[5] = test system: MCF7
[6] = test system: HTERT_HME1
[7] = test system: 184A1
[8] = test system: BT474
[9] = test system: MCF12A
[10] = test system: SUM229PE
[11] = test system: T47D
[12] = test system: HCC1954
[13] = test system: PDX1328

| Structure (SMILES) | GRmax, 72 h [1] [GR] | GRmax, 72 h [2] [GR] | GRmax, 72 h [3] [GR] | GRmax, 72 h [4] [GR] | GRmax, 72 h [5] [GR] | GRmax, 72 h [6] [GR] | GRmax, 72 h [7] [GR] | GRmax, 72 h [8] [GR] | GRmax, 72 h [9] [GR] | GRmax, 72 h [10] [GR] | GRmax, 72 h [11] [GR] | GRmax, 72 h [12] [GR] | GRmax, 72 h [13] [GR] |
| --- | --- | --- | --- | --- | --- | --- | --- | --- | --- | --- | --- | --- | --- |
| COc1cc2nccc(Oc3ccc(NC(=O)C4(C(=O)Nc5ccc(F)cc5)CC4)cc3)c2cc1OC [Cabozantinib] (max 10 µM) | 0.288 | 0.662 | 0.298 | 0.423 | -0.0993 | -0.105 | 0.121 | 0.647 | 0.96 | 0.199 | 0.313 | 0.639 | 0.251 |
| COc1cc2c(Oc3ccc4[nH]c(C)cc4c3F)ncnc2cc1OCCCN1CCCC1 [Cediranib/AZD2171] (max 10 µM) | 0.417 | -0.98 | -0.575 | -0.708 | 0.115 | 0.0275 | 0.167 | 0.742 | 0.937 | 0.18 | -0.64 | -0.32 | -0.544 |
| Cc1cc(Nc2ncc(Cl)c(Nc3ccccc3S(=O)(=O)C(C)C)n2)c(OC(C)C)cc1C1CCNCC1 [Ceritinib/LDK378] (max 10 µM) | -0.32 | -0.991 | -0.983 | -0.742 | -0.616 | -0.356 | -0.728 | 1.18 | 0.172 | 0.336 | -0.855 | -0.445 | -0.943 |
| N.N.[Cl][Pt][Cl] [Cisplatin] (max 10 µM) | – | -0.35 | – | -0.287 | 0.475 | -0.218 | – | – | – | – | 0.102 | -0.0741 | -0.422 |
| Cc1nc(Nc2ncc(C(=O)Nc3c(C)cccc3Cl)s2)cc(N2CCN(CCO)CC2)n1 [Dasatinib] (max 10 µM) | 0.47 | 0.0805 | -0.714 | 0.339 | 0.157 | -0.0749 | 0.192 | -0.42 | -0.0434 | -0.112 | 0.496 | 0.274 | -0.401 |
| COc1cccc2c1C(=O)c1c(O)c3c(c(O)c1C2=O)C[C@@](O)(C(=O)CO)C[C@@H]3O[C@H]1C[C@H](N)[C@H](O)[C@H](C)O1 [Doxorubicin] (max 3.162 µM) | -0.677 | -0.722 | -0.919 | -0.339 | -0.286 | -0.399 | 0.028 | -0.605 | -0.138 | -0.125 | -0.361 | -0.338 | -0.739 |
| COc1cc([C@@H]2c3cc4c(cc3[C@@H](O[C@@H]3O[C@@H]5CO[C@@H](C)O[C@H]5[C@H](O)[C@H]3O)[C@H]3COC(=O)[C@H]23)OCO4)cc(OC)c1O [Etoposide] (max 10 µM) | – | -0.517 | – | -0.513 | -0.0441 | -0.384 | – | – | – | – | -0.186 | -0.265 | -0.281 |
| CC[C@@]1(O)C(=O)OCc2c1cc1n(c2=O)Cc2cc3c(CN(C)C)c(O)ccc3nc2-1 [Topotecan] (max 10 µM) | – | -0.762 | – | -0.658 | -0.271 | -0.34 | – | – | – | – | -0.197 | -0.401 | -0.913 |
